Key:
[1] = system: Glo-Response ARE-luc2P HEK293 cell line; assay: ARE luciferase reporter cell-based assay; conditions: Homo sapiens, HEK293, 24 h, average of results obtained;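 further: luciferase signal tracks Nrf2 activation of the ARE once compounds disrupt KEAP1-Nrf2 binding, read with One-Glo reagent, DMSO serving as low control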
[2] = biological target: Kelch domain of human KEAP1 (321-624 aa) (Homo sapiens (Human), UniProt Q14145); assay: KEAP1 KELCH ThermoFluor binding assay; conditions: KEAP Kelch […], 1,8-ANS, pH 7.0, average of results obtained, read-out: Tf Kd;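 further: Ligand-induced melting temperature shift of E. coli-expressed KEAP1 Kelch protein, Kd estimated from concentration-response curves of ΔTm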
Kelch domain of human KEAP1 (321-624 aa), sequence (Q14145 321-624): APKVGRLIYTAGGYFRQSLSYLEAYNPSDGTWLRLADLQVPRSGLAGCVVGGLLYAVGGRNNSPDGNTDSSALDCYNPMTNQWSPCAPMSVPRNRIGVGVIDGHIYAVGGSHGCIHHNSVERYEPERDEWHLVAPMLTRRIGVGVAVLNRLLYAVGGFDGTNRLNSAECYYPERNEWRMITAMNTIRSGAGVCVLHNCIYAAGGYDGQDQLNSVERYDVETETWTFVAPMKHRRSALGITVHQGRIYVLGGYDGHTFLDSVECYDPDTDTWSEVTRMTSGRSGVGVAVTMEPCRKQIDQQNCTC

| Kd [2] [nM] | SMILES | EC50 [1] [nM] |
| --- | --- | --- |
| < 1 | Cc1ccc([C@@H](CC(=O)O)c2ccn3c(C(F)(F)F)nnc3c2C)cc1CN1CC2(COC2)Oc2ccccc2S1(=O)=O (single isomer, unassigned) [Example 288, (*R)-3-(3-((1,1-dioxidospiro[benzo[b][1,4,5]oxathiazepine-4,3′-oxetan]-2(3H)-yl)methyl)-4-methylphenyl)-3-(8-methyl-3-(trifluoromethyl)-[1,2,4]triazolo[4,3-a]pyridin-7-yl)propanoic Acid] | 123 |
| < 1 | Cc1ccc([C@H](CC(=O)O)c2ccn3c(C(F)(F)F)nnc3c2C)cc1CN1C[C@@H]2CCCCN2c2ncccc2S1(=O)=O (single isomer, unassigned) [Example 290, (*S)-3-(3-(((*S)-5,5-Dioxido-7,7a,8,9,10,11-hexahydro-6H-dipyrido[2,1-d:2′,3′-f][1,2,5]thiadiazepin-6-yl)methyl)-4-methylphenyl)-3-(8-methyl-3-(trifluoromethyl)-[1,2,4]triazolo[4,3-a]pyridin-7-yl)propanoic Acid] | 8.8 |
| < 1 | Cc1ccc([C@@H](CC(=O)O)c2ccn3c(C(F)(F)F)nnc3c2C)cc1CN1C[C@@H]2CCCCN2c2ncccc2S1(=O)=O (single isomer, unassigned) [Example 291, (*R)-3-(3-(((*S)-5,5-Dioxido-7,7a,8,9,10,11-hexahydro-6H-dipyrido[2,1-d:2′,3′-][1,2,5]thiadiazepin-6-yl)methyl)-4-methylphenyl)-3-(8-methyl-3-(trifluoromethyl)-[1,2,4]triazolo[4,3-a]pyridin-7-yl)propanoic Acid] | 86.8 |
| < 1 | Cc1ccc([C@H](CC(=O)O)c2ccn3c(C(F)(F)F)nnc3c2C)cc1CN1C[C@@H]2CCN2c2ncccc2S1(=O)=O (single isomer, unassigned) [Example 292, (*S)-3-(3-(((*S)-5,5-Dioxido-7,7a,8,9-tetrahydro-6H-azeto[2,1-d]pyrido[2,3-f][1,2,5]thiadiazepin-6-yl)methyl)-4-methylphenyl)-3-(8-methyl-3-(trifluoromethyl)-[1,2,4]triazolo[4,3-a]pyridin-7-yl)propanoic Acid] | 68.3 |
| 2.55 | Cc1ccc([C@@H](CC(=O)O)c2ccn3c(C(F)(F)F)nnc3c2C)cc1CN1C[C@@H]2CCN2c2ncccc2S1(=O)=O (single isomer, unassigned) [Example 293, (*R)-3-(3-(((*S)-5,5-Dioxido-7,7a, 8,9-tetrahydro-6H-azeto[2,1-d]pyrido[2,3-f][1,2,5]thiadiazepin-6-yl)methyl)-4-methylphenyl)-3-(8-methyl-3-(trifluoromethyl)-[1,2,4]triazolo[4,3-a]pyridin-7-yl)propanoic Acid] | 899 |
| 1.61 | Cc1ccc([C@H](CC(=O)O)c2ccn3c(C(F)(F)F)nnc3c2C)cc1CN1C[C@H]2CCN2c2ncccc2S1(=O)=O (single isomer, unassigned) [Example 294, (*S)-3-(3-(((*R)-5,5-Dioxido-7,7a, 8,9-tetrahydro-6H-azeto[2,1-d]pyrido[2,3-f][1,2,5]thiadiazepin-6-yl)methyl)-4-methylphenyl)-3-(8-methyl-3-(trifluoromethyl)-[1,2,4]triazolo[4,3-a]pyridin-7-yl)propanoic Acid] | 270 |
| 8.07 | Cc1ccc([C@@H](CC(=O)O)c2ccn3c(C(F)(F)F)nnc3c2C)cc1CN1C[C@H]2CCN2c2ncccc2S1(=O)=O (single isomer, unassigned) [Example 295, (*R)-3-(3-(((*R)-5,5-Dioxido-7,7a,8,9-tetrahydro-6H-azeto[2,1-d]pyrido[2,3-f][1,2,5]thiadiazepin-6-yl)methyl)-4-methylphenyl)-3-(8-methyl-3-(trifluoromethyl)-[1,2,4]triazolo[4,3-a]pyridin-7-yl)propanoic Acid] | 2090 |
| < 1 | CCn1nnc2c(C)c([C@H](CC(=O)O)c3ccc(C)c(CN4C[C@H]5CCCN5c5ncccc5S4(=O)=O)n3)ccc21 (single isomer, unassigned) [Example 297, (*S)-3-(6-(((R)-5,5-Dioxido-7a,8,9,10-tetrahydropyrido[2,3-f]pyrrolo[2,1-d][1,2,5]thiadiazepin-6(7H)-yl)methyl)-5-methylpyridin-2-yl)-3-(1-ethyl-4-methyl-1H-benzo[d][1,2,3]triazol-5-yl)propanoic Acid] | 6 |
| < 1 | CCn1nnc2c(C)c([C@@H](CC(=O)O)c3ccc(C)c(CN4C[C@H]5CCCN5c5ncccc5S4(=O)=O)n3)ccc21 (single isomer, unassigned) [Example 298, (*R)-3-(6-(((R)-5,5-Dioxido-7a,8,9,10-tetrahydropyrido[2,3-f]pyrrolo[2,1-d][1,2,5]thiadiazepin-6(7H)-yl)methyl)-5-methylpyridin-2-yl)-3-(1-ethyl-4-methyl-1H-benzo[d][1,2,3]triazol-5-yl)propanoic Acid] | 21.5 |
| < 1 | Cc1ccc([C@H](CC(=O)O)c2ccn3c(C(F)(F)F)nnc3c2C)cc1CN1C[C@H]2CCCCN2c2ccccc2S1(=O)=O (single isomer, unassigned) [Example 300, (*S)-3-(3-(((*R)-5,5-Dioxido-7,7a,8,9,10,11-hexahydro-6H-benzo[f]pyrido[2,1-d][1,2,5]thiadiazepin-6-yl)methyl)-4-methylphenyl)-3-(8-methyl-3-(trifluoromethyl)-[1,2,4]triazolo[4,3-a]pyridin-7-yl)propanoic Acid] | 5 |
| < 1 | CCn1nnc2c(C)c([C@H](CC(=O)O)c3ccc(C)c(CN4C[C@@H]5CCCCN5c5ncccc5S4(=O)=O)n3)ccc21 (single isomer, unassigned) [Example 302, (*S)-3-(6-(((*S)-5,5-Dioxido-7,7a,8,9,10,11-hexahydro-6H-dipyrido[2,1-d:2′,3′-][1,2,5]thiadiazepin-6-yl)methyl)-5-methylpyridin-2-yl)-3-(1-ethyl-4-methyl-1H-benzo[d][1,2,3]triazol-5-yl)propanoic Acid] | 2.8 |
| < 1 | CCn1nnc2c(C)c([C@@H](CC(=O)O)c3ccc(C)c(CN4C[C@@H]5CCCCN5c5ncccc5S4(=O)=O)n3)ccc21 (single isomer, unassigned) [Example 303, (*R)-3-(6-(((*S)-5,5-Dioxido-7,7a,8,9,10,11-hexahydro-6H-dipyrido[2,1-d:2′,3′-][1,2,5]thiadiazepin-6-yl)methyl)-5-methylpyridin-2-yl)-3-(1-ethyl-4-methyl-1H-benzo[d][1,2,3]triazol-5-yl)propanoic Acid] | 27.1 |
| < 1 | CCn1nnc2c(C)c([C@H](CC(=O)O)c3ccc(C)c(CN4C[C@H]5CCCCN5c5ncccc5S4(=O)=O)n3)ccc21 (single isomer, unassigned) [Example 305, (*S)-3-(6-(((*R)-5,5-Dioxido-7,7a,8,9,10,11-hexahydro-6H-dipyrido[2,1-d:2′,3′-][1,2,5]thiadiazepin-6-yl)methyl)-5-methylpyridin-2-yl)-3-(1-ethyl-4-methyl-1H-benzo[d][1,2,3]triazol-5-yl)propanoic Acid] | 1.7 |
